Data on 6 compounds can be found in US20100311736A1, “PYRIDOSULFONAMIDE DERIVATIVES AS P13 KINASE INHIBITORS” (GlaxoSMithKline LLC, priority 2007, published 2010).

One assay addresses T1, PI3Kα (Homo sapiens, UniProt P42336).
T1 construct: His; made in house
Nature of the assay: PI3K alpha enzyme inhibition (TR-FRET assay / Leadseeker SPA assay). It counts as biochemical. As to conditions: in at least one experimental run; read-out: IC50 against PI3Kα. The protocol: Compounds of the present invention were tested according to the following assays and found as inhibitors of PI3 kinases, particularly PI3Kα. The exemplified compounds were tested and found active against PI3Kα. The IC50's ranged from about 1 nM to 10 μM.
The PI3-Kinase assay has been developed and optimized from a kit produced by Upstate (Millipore). Briefly, this kit contains a biotinylated PIP3 which forms a HTRF (homogeneous time-resolved fluorescence energy transfer) complex when mixed with a Europium labeled anti-GST monoclonal antibody, a GST tagged pleckstrin homology (PH) domain, and Streptavidin-Allophycocyanin (APC). The unlabeled PIP3 produced by PI 3-Kinase activity displaces biotin-PIP3 from the complex resulting in a loss of energy transfer and thus a decrease in signal. Millipore, PI 3-Kinase (human) HTRF™ Assay, technical document associated with catalog #33-017
Compounds are serially diluted (3-fold in 100% DMSO) across a polypropylene 120 μL mother plate from column 1 to column 12 and column 13 to column 24, leaving columns 6 and 18 containing only DMSO to yield 11 concentrations for each test compound. Once titrations are made, 0.1 μL is transferred to the assay plates (Greiner 784075). This assay plate contains three controls: column 6 with DMSO, and column 18 with alternating 20 μM wortmannin and 40 μM PIP3. […] The PIP3 control is dispensed into the plate manually via a matrix pipettor, 1 μL of 200 μM PIP3 in 1× Reaction buffer to wells 18 B, D, F, H, J, L, N, P.
The PI3-Kinase assay has been developed and optimized from a kit produced by Upstate (Millipore). The assay kit (cat: 33-017) contains seven reagents: 1) 4× Reaction Buffer, 2) PIP2 (1 mM), 3) Stop A, 4) Stop B, 5) Detection Mix A, 6) Detection Mix B, 7) Detection Mix C. In addition the following items were obtained or purchased, PI3Kinase (prepared in-house), 4× PI3K Detection Buffer (Millipore), dithiothreitol (Sigma, D-5545), Adenosine-5′-triphosphate (ATP, Sigma, A-6419), PIP3 (1,2-dioctanoyl-sn-glycero-3-[phosphoinositil-3,4,5-triphosphate]tetraammonium salt (Avanti polar lipids, 850186P), DMSO (Sigma, 472301), Wortmannin (Sigma, W-1628).
Prepare 1× PI3Kinase Reaction Buffer by diluting stock 1:4 with de-ionized water, freshly prepared DTT is added at a final concentration of 5 mM on the day of use. Enzyme addition and compound preincubation is initiated by the addition of 2.5 μL of 2× enzyme solution, PI3K alpha in 1× reaction buffer, to all wells using a Multidrop Combi. Plates are incubated at room temperature for 15 minutes. Substrate addition and reaction initiation is completed by the addition of 2.5 μL of 2× substrate solution, PIP2 and ATP in 1× reaction buffer, to all wells using a Multidrop Combi. […] Incubate one hour, evaluate the HTRF signal on the Envision plate reader. […]

The next assay relates to Class I PI3-kinases. The following applies: cited from earlier work.
The next assay deals with CK2 protein kinase (Homo sapiens, UniProt P68400). As to conditions: background statement; cited from earlier work.
Sequence of CK2 protein kinase (P68400 whole entry): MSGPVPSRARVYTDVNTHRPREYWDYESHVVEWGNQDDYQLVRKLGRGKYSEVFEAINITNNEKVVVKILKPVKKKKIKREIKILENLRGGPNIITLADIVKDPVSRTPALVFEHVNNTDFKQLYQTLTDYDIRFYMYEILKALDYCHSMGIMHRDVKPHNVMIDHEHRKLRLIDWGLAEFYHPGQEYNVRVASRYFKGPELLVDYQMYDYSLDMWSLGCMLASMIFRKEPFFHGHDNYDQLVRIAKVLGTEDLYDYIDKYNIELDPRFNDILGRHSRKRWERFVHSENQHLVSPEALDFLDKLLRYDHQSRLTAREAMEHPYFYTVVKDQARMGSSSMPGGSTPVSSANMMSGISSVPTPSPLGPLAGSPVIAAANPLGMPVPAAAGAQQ

Read-outs that look alike come from different tables or passages of the source.

T1 sequence (P42336 whole entry): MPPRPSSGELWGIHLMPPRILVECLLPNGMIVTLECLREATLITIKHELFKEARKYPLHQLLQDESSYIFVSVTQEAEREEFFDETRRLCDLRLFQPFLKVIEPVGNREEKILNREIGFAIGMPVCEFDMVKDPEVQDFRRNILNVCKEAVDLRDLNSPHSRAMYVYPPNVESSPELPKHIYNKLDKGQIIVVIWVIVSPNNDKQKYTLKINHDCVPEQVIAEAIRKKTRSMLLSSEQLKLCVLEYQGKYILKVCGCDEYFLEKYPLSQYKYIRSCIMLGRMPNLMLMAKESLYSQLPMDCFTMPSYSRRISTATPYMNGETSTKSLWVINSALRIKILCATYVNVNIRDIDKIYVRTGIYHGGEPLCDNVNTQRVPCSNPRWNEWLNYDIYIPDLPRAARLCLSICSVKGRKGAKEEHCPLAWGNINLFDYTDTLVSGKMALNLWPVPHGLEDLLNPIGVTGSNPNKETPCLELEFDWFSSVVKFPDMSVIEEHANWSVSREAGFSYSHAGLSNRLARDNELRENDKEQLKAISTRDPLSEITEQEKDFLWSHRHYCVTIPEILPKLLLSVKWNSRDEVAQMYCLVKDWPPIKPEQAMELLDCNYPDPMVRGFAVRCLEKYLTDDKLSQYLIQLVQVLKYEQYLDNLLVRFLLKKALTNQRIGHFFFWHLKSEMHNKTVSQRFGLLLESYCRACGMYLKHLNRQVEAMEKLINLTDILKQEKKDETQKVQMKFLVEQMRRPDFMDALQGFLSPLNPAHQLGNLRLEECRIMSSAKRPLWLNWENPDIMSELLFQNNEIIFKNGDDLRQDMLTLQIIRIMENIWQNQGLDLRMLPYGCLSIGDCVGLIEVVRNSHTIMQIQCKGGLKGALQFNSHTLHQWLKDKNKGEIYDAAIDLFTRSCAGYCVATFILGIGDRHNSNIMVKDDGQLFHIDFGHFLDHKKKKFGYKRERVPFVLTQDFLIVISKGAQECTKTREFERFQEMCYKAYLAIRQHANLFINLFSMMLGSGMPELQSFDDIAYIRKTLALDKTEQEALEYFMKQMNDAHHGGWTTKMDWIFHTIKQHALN
T1 sequence (P27986 whole entry partner): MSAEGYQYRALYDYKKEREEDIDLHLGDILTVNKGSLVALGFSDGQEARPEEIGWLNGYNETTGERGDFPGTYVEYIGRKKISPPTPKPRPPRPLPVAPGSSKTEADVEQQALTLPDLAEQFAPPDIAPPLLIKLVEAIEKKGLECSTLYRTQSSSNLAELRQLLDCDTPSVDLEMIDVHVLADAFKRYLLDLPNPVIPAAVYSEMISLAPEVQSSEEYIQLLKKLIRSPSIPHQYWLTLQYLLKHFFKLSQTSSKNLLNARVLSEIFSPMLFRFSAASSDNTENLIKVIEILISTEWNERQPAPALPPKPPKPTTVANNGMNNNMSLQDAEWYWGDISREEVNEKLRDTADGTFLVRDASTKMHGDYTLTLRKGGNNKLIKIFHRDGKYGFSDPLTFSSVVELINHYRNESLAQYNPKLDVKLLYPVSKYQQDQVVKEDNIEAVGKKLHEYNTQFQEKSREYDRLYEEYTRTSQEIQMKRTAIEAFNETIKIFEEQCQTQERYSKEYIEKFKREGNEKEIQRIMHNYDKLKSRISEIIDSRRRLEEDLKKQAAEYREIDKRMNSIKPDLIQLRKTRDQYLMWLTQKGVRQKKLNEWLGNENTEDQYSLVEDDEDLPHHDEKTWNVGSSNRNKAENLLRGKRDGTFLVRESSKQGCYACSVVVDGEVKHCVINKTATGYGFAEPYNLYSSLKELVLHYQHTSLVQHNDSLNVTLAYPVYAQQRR

Turning to `O=S(=O)(Nc1cc(-c2cn[nH]c2)cnc1Cl)c1ccccc1` [Example 22, N-[2-chloro-5-(1H-pyrazol-4-yl)-3-pyridinyl]benzenesulfonamide], the IC50 on PI3Kα is 316 nM. As to `O=c1cc(N2CCOCC2)oc2c(-c3ccccc3)cccc12` [LY294002], the IC50 with Class I PI3-kinases (Fruman et al. 1998, read-out: IC50 against each of these PI3-kinases) is 15000 to 20000 nM; at CK2 protein kinase, 5000 to 10000 nM.

As for `COC[C@H]1OC(=O)c2coc3c2[C@@]1(C)C1=C(C3=O)[C@@H]2CCC(=O)[C@@]2(C)C[C@H]1OC(C)=O` [wortmannin], the IC50 in the assay on Class I PI3-kinases (wortmannin, background statement, read-out: IC50 against each of the various Class I PI3-kinases) is 1 to 10 nM. As to `CNc1ncc(-c2cnc(Cl)c(NS(=O)(=O)c3ccccc3)c2)cn1` [Example 29, N-{2-chloro-5-[2-(methylamino)-5-pyrimidinyl]-3-pyridinyl}benzenesulfonamide], the IC50 at PI3Kα came to 100 nM. Take `O=S(=O)(Nc1cc(-c2ccc3ccccc3c2)cnc1Cl)c1ccccc1` [Example 27, N-[2-chloro-5-(2-naphthalenyl)-3-pyridinyl]benzenesulfonamide]: at PI3Kα, the IC50 worked out at 631 nM. Turning to `O=S(=O)(Nc1cc(-c2ccc3nccn3c2)cnc1Cl)c1ccccc1` [Example 35, N-(2-chloro-5-imidazo[1,2-a]pyridin-6-yl-3-pyridinyl)benzenesulfonamide], the IC50 on PI3Kα turned out to be 13 nM.
